Laboratory results reported in patent US11058678B2 (Enanta Pharmaceuticals, Inc., priority 2018, dated 2021).

Test system: HBV (2.2.15 cells)
Test: Antiviral activity in 2.2.15 cells: reduction of viral product accumulation (qPCR of lysates, HBsAg or HBeAg ELISA)
Format: cell-based, hepatitis B virus (HBV)
Details: Hepatitis B virus, 120 h, day 5 post treatment, 50% reduction of viral product accumulation in lysates or supernatants vs no drug controls, readout (qPCR, HBsAg, HBeAg) not specified
Procedure, shortened: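 HBV-producing 2.2.15 cells, 35,000/well, treated with 5-fold serial compound dilutions at 0.5% final DMSO for 5 days. Lysate HBV DNA by qPCR or supernatant HBsAg/HBeAg by ELISA; EC50 is 50% reduction versus no-drug control, binned A<0.1 μM, B 0.1-1 μM, C>1 μM.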

SMILES: CC(C)[C@@H]1Cc2c(cc(-c3ccncc3)c3c2CCO3)-c2cc(=O)c(C(=O)O)cn21 [Example 104, (S)-5-isopropyl-9-oxo-12-(pyridin-4-yl)-2,3,4,9-tetrahydro-5H-furo[3,2-f]pyrido[2,1-a]isoquinoline-8-carboxylic Acid]
- EC50: < 100 nM

SMILES: Cn1nccc1-c1cc2c(c3c1OC(C)(C)C3)C[C@@H](C(C)(C)C)n1cc(C(=O)O)c(=O)cc1-2 [Example 150, (S)-5-(tert-butyl)-2,2-dimethyl-12-(1-methyl-1H-pyrazol-5-yl)-9-oxo-2,3,4,9-tetrahydro-5H-furo[3,2-f]pyrido[2,1-a]isoquinoline-8-carboxylic Acid]
- EC50: > 1000 nM

SMILES: CC(C)[C@@H]1Cc2c(cc(-c3ccc(F)c(F)c3)c3c2CCO3)-c2cc(=O)c(C(=O)O)cn21 [Example 114, (S)-12-(3,4-difluorophenyl)-5-isopropyl-9-oxo-2,3,4,9-tetrahydro-5H-furo[3,2-f]pyrido[2,1-a]isoquinoline-8-carboxylic Acid]
- EC50: > 1000 nM

SMILES: COCCCOc1cc2c(cc1-c1nnc(C(F)(F)F)o1)-c1cc(=O)c(C(=O)O)cn1[C@H](C(C)(C)C)C2 [Example 53, (S)-6-(tert-butyl)-9-(3-methoxypropoxy)-2-oxo-10-(5-(trifluoromethyl)-1,3,4-oxadiazol-2-yl)-6,7-dihydro-2H-pyrido[2,1-a]isoquinoline-3-carboxylic Acid]
- EC50: < 100 nM

SMILES: CC(C)[C@@H]1Cc2c(cc(-c3ccc(F)cc3)c3c2CCO3)-c2cc(=O)c(C(=O)O)cn21 [Example 89, (S)-12-(4-fluorophenyl)-5-isopropyl-9-oxo-2,3,4,9-tetrahydro-5H-furo[3,2-f]pyrido[2,1-a]isoquinoline-8-carboxylic Acid]
- EC50: < 100 nM

SMILES: Cn1ccc(-c2cc3c(c4c2OC(C)(C)C4)C[C@@H](C(C)(C)C)n2cc(C(=O)O)c(=O)cc2-3)n1 [Example 144, (S)-5-(tert-butyl)-2,2-dimethyl-12-(1-methyl-1H-pyrazol-3-yl)-9-oxo-2,3,4,9-tetrahydro-5H-furo[3,2-f]pyrido[2,1-a]isoquinoline-8-carboxylic Acid]
- EC50: > 1000 nM

SMILES: CC(C)[C@@H]1Cc2c(cc(-c3cnn(C)c3)c3c2CCO3)-c2cc(=O)c(C(=O)O)cn21 [Example 97, (S)-5-isopropyl-12-(1-methyl-1H-pyrazol-4-yl)-9-oxo-2,3,4,9-tetrahydro-5H-furo[3,2-f]pyrido[2,1-a]isoquinoline-8-carboxylic Acid]
- EC50: < 100 nM

SMILES: CC(C)(C)[C@@H]1Cc2c(cc(-c3cccnc3)c3c2CCO3)-c2cc(=O)c(C(=O)O)cn21 [Example 75, (S)-5-(tert-butyl)-9-oxo-12-(pyridin-3-yl)-2,3,4,9-tetrahydro-5H-furo[3,2-f]pyrido[2,1-a]isoquinoline-8-carboxylic Acid]
- EC50: < 100 nM

SMILES: COCCCOc1cc2c(cc1-c1cccc(OC(F)(F)F)c1)-c1cc(=O)c(C(=O)O)cn1[C@H](C(C)(C)C)C2 [Example 57, (S)-6-(tert-butyl)-9-(3-methoxypropoxy)-2-oxo-10-(3-(trifluoromethoxy)phenyl)-6,7-dihydro-2H-pyrido[2,1-a]isoquinoline-3-carboxylic Acid]
- EC50: > 1000 nM

SMILES: Cn1nccc1-c1cc2c(c3c1OCC3)C[C@@H](C(C)(C)C)n1cc(C(=O)O)c(=O)cc1-2 [Example 68, (S)-5-(tert-butyl)-12-(1-methyl-1H-pyrazol-5-yl)-9-oxo-2,3,4,9-tetrahydro-5H-furo[3,2-f]pyrido[2,1-a]isoquinoline-8-carboxylic Acid]
- EC50: < 100 nM

SMILES: CC(C)[C@@H]1Cc2c(cc(-n3cccn3)c3c2CCO3)-c2cc(=O)c(C(=O)O)cn21 [Example 116]
- EC50: < 100 nM

SMILES: COCCCOc1cc2c(cc1-c1cccc(OC)c1)-c1cc(=O)c(C(=O)O)cn1[C@H]1[C@@H]2COC1(C)C [Example 140, (3aS,12bR)-10-(3-methoxyphenyl)-11-(3-methoxypropoxy)-3,3-dimethyl-7-oxo-3,3a,7,12b-tetrahydro-1H-furo[3,4-c]pyrido[2,1-a]isoquinoline-6-carboxylic Acid]
- EC50: < 100 nM

SMILES: CC(C)[C@@H]1Cc2c(cc(-c3cccc(F)c3)c3c2CCO3)-c2cc(=O)c(C(=O)O)cn21 [Example 107, (S)-12-(3-fluorophenyl)-5-isopropyl-9-oxo-2,3,4,9-tetrahydro-5H-furo[3,2-f]pyrido[2,1-a]isoquinoline-8-carboxylic Acid]
- EC50: < 100 nM

SMILES: COCCCOc1cc2c(cc1-c1ccc3oncc3c1)-c1cc(=O)c(C(=O)O)cn1[C@H](C(C)(C)C)C2 [Example 47, (S)-10-(benzo[d]isoxazol-5-yl)-6-(tert-butyl)-9-(3-methoxypropoxy)-2-oxo-6,7-dihydro-2H-pyrido[2,1-a]isoquinoline-3-carboxylic Acid]
- EC50: > 1000 nM

SMILES: CCc1nnc(-c2cc3c(cc2OCCCOC)C[C@@H](C(C)(C)C)n2cc(C(=O)O)c(=O)cc2-3)o1 [Example 43, (S)-6-(tert-butyl)-10-(5-ethyl-1,3,4-oxadiazol-2-yl)-9-(3-methoxypropoxy)-2-oxo-6,7-dihydro-2H-pyrido[2,1-a]isoquinoline-3-carboxylic Acid]
- EC50: < 100 nM

SMILES: CC(C)[C@@H]1Cc2c(cc(-c3ccccc3Cl)c3c2CCO3)-c2cc(=O)c(C(=O)O)cn21 [Example 113]
- EC50: > 1000 nM

SMILES: COCCCOc1cc2c(cc1-c1nnco1)-c1cc(=O)c(C(=O)O)cn1[C@H](C(C)(C)C)C2 [Example 36, (S)-6-(tert-butyl)-9-(3-methoxypropoxy)-10-(1,3,4-oxadiazol-2-yl)-2-oxo-6,7-dihydro-2H-pyrido[2,1-a]isoquinoline-3-carboxylic Acid]
- EC50: < 100 nM

SMILES: CC(C)[C@@H]1Cc2c(cc(-c3cccc(Cl)c3)c3c2CCO3)-c2cc(=O)c(C(=O)O)cn21 [Example 112, (S)-12-(3-chlorophenyl)-5-isopropyl-9-oxo-2,3,4,9-tetrahydro-5H-furo[3,2-f]pyrido[2,1-a]isoquinoline-8-carboxylic Acid]
- EC50: > 1000 nM

SMILES: COCCCOc1cc2c(cc1-n1ccc3ccccc31)-c1cc(=O)c(C(=O)O)cn1[C@H](C(C)(C)C)C2 [Example 52, (S)-6-(tert-butyl)-10-(1H-indol-1-yl)-9-(3-methoxypropoxy)-2-oxo-6,7-dihydro-2H-pyrido[2,1-a]isoquinoline-3-carboxylic Acid]
- EC50: < 100 nM

SMILES: COCCCOc1cc2c(cc1-c1cnn(C)c1)-c1cc(=O)c(C(=O)O)cn1[C@H]1[C@@H]2COC1(C)C [Example 123, (3aS,12bR)-11-(3-methoxypropoxy)-3,3-dimethyl-10-(1-methyl-1H-pyrazol-4-yl)-7-oxo-3,3a,7,12b-tetrahydro-1H-furo[3,4-c]pyrido[2,1-a]isoquinoline-6-carboxylic Acid]
- EC50: < 100 nM

SMILES: CC(C)(C)[C@@H]1Cc2c(cc(-c3cnco3)c3c2CCO3)-c2cc(=O)c(C(=O)O)cn21 [Example 83, (S)-5-(tert-butyl)-12-(oxazol-5-yl)-9-oxo-2,3,4,9-tetrahydro-5H-furo[3,2-f]pyrido[2,1-a]isoquinoline-8-carboxylic Acid]
- EC50: < 100 nM

SMILES: COCCCOc1cc2c(cc1-c1ccc(OC(C)C)cc1)-c1cc(=O)c(C(=O)O)cn1[C@H](C(C)(C)C)C2 [Example 38, (S)-6-(tert-butyl)-10-(4-isopropoxyphenyl)-9-(3-methoxypropoxy)-2-oxo-6,7-dihydro-2H-pyrido[2,1-a]isoquinoline-3-carboxylic Acid]
- EC50: > 1000 nM

SMILES: COc1cccc(-c2cc3c(c4c2OCC4)C[C@@H](C(C)C)n2cc(C(=O)O)c(=O)cc2-3)c1 [Example 92, (S)-5-isopropyl-12-(3-methoxyphenyl)-9-oxo-2,3,4,9-tetrahydro-5H-furo[3,2-f]pyrido[2,1-a]isoquinoline-8-carboxylic Acid]
- EC50: < 100 nM

SMILES: COCCCOc1cc2c(cc1-c1ccccc1Cl)-c1cc(=O)c(C(=O)O)cn1[C@H]1[C@@H]2COC1(C)C [Example 139, (3aS,12bR)-10-(2-chlorophenyl)-11-(3-methoxypropoxy)-3,3-dimethyl-7-oxo-3,3a,7,12b-tetrahydro-1H-furo[3,4-c]pyrido[2,1-a]isoquinoline-6-carboxylic Acid]
- EC50: < 100 nM

SMILES: CC(C)(C)[C@@H]1Cc2c(cc(-c3cccc(C(F)(F)F)c3)c3c2CCO3)-c2cc(=O)c(C(=O)O)cn21 [Example 81, (S)-5-(tert-butyl)-9-oxo-12-(3-(trifluoromethyl)phenyl)-2,3,4,9-tetrahydro-5H-furo[3,2-f]pyrido[2,1-a]isoquinoline-8-carboxylic Acid]
- EC50: > 1000 nM

SMILES: COCCCOc1cc2c(cc1N1CCCC1)-c1cc(=O)c(C(=O)O)cn1[C@@H](C(C)(C)C)C2 [Example 50, (R)-6-(tert-butyl)-9-(3-methoxypropoxy)-2-oxo-10-(pyrrolidin-1-yl)-6,7-dihydro-2H-pyrido[2,1-a]isoquinoline-3-carboxylic Acid]
- EC50: < 100 nM

SMILES: COCCCOc1cc2c(cc1-c1ccoc1)-c1cc(=O)c(C(=O)O)cn1[C@H]1[C@@H]2COC1(C)C [Example 126, (3aS,12bR)-10-(furan-3-yl)-11-(3-methoxypropoxy)-3,3-dimethyl-7-oxo-3,3a,7,12b-tetrahydro-1H-furo[3,4-c]pyrido[2,1-a]isoquinoline-6-carboxylic Acid]
- EC50: < 100 nM

SMILES: COCCCOc1cc2c(cc1-c1ccc3c(c1)OCCC3)-c1cc(=O)c(C(=O)O)cn1[C@H](C(C)(C)C)C2 [Example 39, (S)-6-(tert-butyl)-10-(chroman-7-yl)-9-(3-methoxypropoxy)-2-oxo-6,7-dihydro-2H-pyrido[2,1-a]isoquinoline-3-carboxylic Acid]
- EC50: > 1000 nM

SMILES: COCCCOc1cc2c(cc1-c1ccsc1)-c1cc(=O)c(C(=O)O)cn1[C@H]1[C@@H]2COC1(C)C [Example 143, (3aS,12bR)-11-(3-methoxypropoxy)-3,3-dimethyl-7-oxo-10-(thiophen-3-yl)-3,3a,7,12b-tetrahydro-1H-furo[3,4-c]pyrido[2,1-a]isoquinoline-6-carboxylic Acid]
- EC50: < 100 nM
